Where “and” joins values, the source holds several entries; their conditions need not be identical. Equal entries are not always repeated.
Assays:
[1] = test system: tumor; conditions: in vivo; cited from earlier work
[2] = test system: tumors; conditions: cited from earlier work
[3] = test system: serum proteins; conditions: normal dose used for PDT (3–5 mg/kg body weight); cited from earlier work
[4] = test system: L1210 cells; experiment: Phototoxicity in L1210 cells, MTT viability assay; format: cell-based; conditions: phototoxicity
Procedure: The above described compounds were tested in vitro for phototoxicity and dark toxicity in L1210 cells as described in the Example section below. Twenty four compounds which were tested for cytotoxicity are listed in Table 3 below along with BPD-MA.
Phototoxicity was determined with L11210 cells in the presence of the compound as follows: the L1210 cells were exposed to varying concentrations of the compounds in 96-well microtiter plates for one hour at 37° C. and 5% CO2. No fetal calf serum (FCS) was added at this time. The plate was then illuminated for one hour after which a 10% aqueous FCS solution was added to the wells. The plates were then returned to the CO2 incubator overnight. After incubation, the cells were assayed for viability using the MTT assay (Mossman, T. J. Immunol. Meth. 1983, 65, 55).

[5] = test system: tumors; conditions: in sensitizing tumors; cited from earlier work

## Oc1cccc(-c2c3nc(c(-c4cccc(O)c4)c4ccc([nH]4)c(-c4cccc(O)c4)c4nc(c(-c5cccc(O)c5)c5ccc2[nH]5)CC4)C=C3)c1 [Tetra(m-hydroxyphenyl)chlorin]
[1]
  recurrence: 10%
  side effects: extended skin sensitivity, severe chest pains and loss of appetite
  tumor necrosis: 90%
[2]; in vivo bioassays
  LD50: 3 mg/kg
[2]; in vivo
  times more effective than HpD in destroying tumors: 25–30

## CC1=C(CCC(=O)O)c2cc3[nH]c(cc4nc(cc5[nH]c(cc1n2)c(C)c5C(C)O)C(C)=C4C(C)O)c(C)c3CCC(=O)O (centres unmarked) [hematoporphyrin]
[3]
  complexed by serum proteins: at least 95%

## C=Cc1c(C)c2cc3nc(cc4[nH]c(cc5nc(cc1[nH]2)C(C)=C5CCC(=O)O)c(CCC(=O)OC)c4C)C1(C)C3=CC=C(C(=O)OC)C1C(=O)OC (centres unmarked) [BPDMA, reference compound]
[4]
  LD50: 0.026 µM
[4]; L1210 cells, 1 h exposure without FCS, 1 h illumination, MTT
  LD50: 0.026 M and 19 ng/mL
[4]; L1210 cells, 1 h exposure without FCS, 1 h illumination, MTT, listed as BPD-MA
  LD50: 19 ng/mL
[5]
  times more potent than HpD: 70
  times more potent than Photofrin™: 45
